Legend:
Format in all cases: in vivo
[1] = test system: Botrytis cinerea (BOTRCI); experiment: Field assessment of gray mold on grapevine
Excerpt: On grapevine: A fungicidal treatment containing Compound I, applied in a 5% EC formulation and tank mixed with an adjuvant (Trycol, 50% w/w at 0.2% v/v), was sprayed only on the bunch portion of grape plants (VITVI, Pinot grey variety) at rates of 50, 150 and 200 grams of active ingredient per hectare (g ai/ha). The trial was based on two applications 28 days apart in open field conditions with disease inoculation 3 days after the last application (plant growth stage B83). The treatment was part of an experimental trial designed as a randomized complete block with four replications and a plot of approximately 2.5×7.0 m. Formulations of compound I were applied at water volume of 500 L/ha (bunches only), using a backpack plot sprayer ([…], Solo 433; Airatom nozzle). Disease severity was recorded as a percentage of incidence and infection of damaged bunches on a random sample of 100 bunches per plot. Gray mold infection was assessed three times, the first at 22 days after the last application (22DAAB), the second and third at 28DAAB and 36DAAB. Area under the disease progress curve (AUDPC) was calculated for each plot using the sets of recorded severity data. Relative AUDPC (% control based on AUDPC) was calculated as percent of the nontreated control.

[2] = test system: Botrytis cinerea (BOTRCI); experiment: Field assessment of gray mold on strawberry
Excerpt: On strawberry: A fungicidal treatment containing Compound I, applied in a 5% EC formulation and tank mixed with an adjuvant (Trycol, 50% w/w at 0.2% v/v), was sprayed on strawberry plants (FRAAN, Candonga variety) at rates of 50, 150 and 200 grams of active ingredient per hectare (g ai/ha). The trial was based on four broadcast applications during the growing season at approximately 10 day intervals with grey mold inoculation after the last application (plant growth stage B85). The treatment was part of an experimental trial designed as a randomized complete block with four replications and a plot size of approximately 2.0×5.0 m. Formulations of compound I were applied at water volume of 800 L/ha, using a backpack plot sprayer (BKPCKENG, solo 433; HCSOLID—Albutz ATR80 Yellow nozzle) and pressurized at 300 kPa.
Disease severity was recorded as a percentage of fruit incidence of damaged fruits on a random sample of 100 fruits per plot. Gray mold infection was assessed twice at 10 days after the third application (10DAAC) and 10DAAD. Area under the disease progress curve (AUDPC) was calculated for each plot using the sets of recorded incidence data. Relative AUDPC (% control based on AUDPC) was calculated as percent of the nontreated control.

[3] = test system: Podosphaera leucotricha (PODOLE); experiment: Field assessment of apple powdery mildew; details: apples, 5% EC + ETHOMEEN T18H
Procedure: Assessment of compound I of PODOLE on apples was performed in two separate field trials. For the first trial, a fungicidal treatment containing a 5% EC formulation of compound I plus an adjuvant (ETHOMEEN T18H, 50% w/w at 1.0% v/v), was sprayed on the plant canopy of apples (MABSD, Imperatore Dallago variety) seven times during the growing season, the first application at BBCH 61 of plant growth stage, under natural infection of powdery mildew under open field conditions. The following six applications were applied in approximately 10 day intervals. Formulations of compound I were applied at rates of 100, 150, and 200 grams of active ingredient per hectare (g ai/ha). The treatment was part of an experimental trial designed as a randomized complete block with four replications and a plot of approximately 4.2×7.5 m. Formulations of compound I were applied at water volume of 800 L/ha, using a backpack plot sprayer (TRACKSP, Andreoli Engineering) and pressurized at 450 kPa.
For the second trial, a fungicidal treatment containing a 5% EC formulation of compound I plus an adjuvant (ETHOMEEN T18H, 50% w/w at 1.0% v/v), was sprayed on the plant canopy of apples (MABSD, Imperatore Dallago variety) seven times during the growing season, the first application at BBCH 61 of plant growth stage, under natural infection of powdery mildew under open field conditions. The following six applications were applied in approximately 10 day intervals. Formulations of compound I were applied at rates of 100, 150, and 200 grams of active ingredient per hectare (g ai/ha). The treatment was part of an experimental trial designed as a randomized complete block with four replications and a plot of approximately 4.2×7.5 m. Formulations of compound I were applied at water volume of 800 L/ha, using a self-propelled multi-plot track sprayer (TRACKSP, Andreoli Engineering) and pressurized at 450 kPa.
Disease severity in both trials was assessed as the percentage of leaf incidence and leaf infection on a random selection of 100 leaves. In the first trial, powdery mildew infection was assessed three times, 3 days after application D (3DAAD), 7DAAF, and SDAAG. In the second trial, powdery mildew infection was assessed four times, 6DAAB, 2DAAD, 7DAAF and SDAAG. Area under the disease progress curve (AUDPC) was calculated for each plot using the sets of recorded visual infection data. Relative AUDPC (% control based on AUDPC) was calculated as percent of the nontreated control.

[4] = test system: Capnodium sp. (CAPDSP); experiment: Field assessment of sooty mold on pears
Excerpt: A 10% SC formulation of Compound I was tank mixed with three different adjuvants: Agnique BP420 (50% w/w at 0.3% v/v), Ethomeen T18H (50% w/w at 0.15% v/v) and Trycol (50% w/w at 0.3% v/v). Formulations of compound I were sprayed on the plant canopy of pear trees (Highland variety) of approximately 2.5 m in height at rates of 100, 150 and 200 grams of active ingredient per hectare (g ai/ha). The trial was based on six foliar applications during the growing season at approximately 12 day intervals with natural pear scab and sooty mold infections in open field conditions. The treatment was part of an experimental trial designed as a randomized complete block with four replications and a plot of approximately 3×5 m. Formulations of compound I were applied with a SOLO mistblower sprayer at a water volume of 1500 L/ha.
For VENTPI evaluation, percent control was calculated based on incidence and severity in fruit assessment vs the nontreated control on a random selection of 50 fruits per plot. […] Percent control for both diseases was calculated at 11DAAE, 7DAAF and 15DAAF.

COc1ccnc(C(=O)N[C@@H](C)C(=O)O[C@@H](C)C(c2ccc(F)cc2)c2ccc(F)cc2)c1OC(C)=O [Compound I, (S)-1,1-bis(4-fluorophenyl)propan-2-yl (3-acetoxy-4-methoxypicolinoyl)-L-alaninate]
A (76-100): Percent control (AUDPC) from fruit infection assessments ([1]; 150 g ai/ha) | Percent control (AUDPC) from fruit infection assessments ([1]; 200 g ai/ha) | Percent control (AUDPC) from fruit infection assessments ([2]; 150 g ai/ha) | Percent control (AUDPC) from fruit infection assessments ([2]; 200 g ai/ha) | Percent control (AUDPC) from leaf infection assessments ([3]; Trial 1, 150 g ai/ha) | Percent control (AUDPC) from leaf infection assessments ([3]; Trial 1, 200 g ai/ha) | Percent control (AUDPC) from leaf infection assessments ([3]; Trial 2, 100 g ai/ha) | Percent control (AUDPC) from leaf infection assessments ([3]; Trial 2, 150 g ai/ha) | Percent control (AUDPC) from leaf infection assessments ([3]; Trial 2, 200 g ai/ha) | Percent control CAPDSP, incidence in leaf assessment ([4]; 100 g ai/ha, adjuvant Agnique BP420 (first such line, r11), 15 days after final application) | Percent control CAPDSP, incidence in leaf assessment ([4]; 100 g ai/ha, adjuvant Agnique BP420 (second such line, r13), 15 days after final application) | Percent control CAPDSP, incidence in leaf assessment ([4]; 100 g ai/ha, adjuvant ETHOMEEN, 15 days after final application) | Percent control CAPDSP, incidence in leaf assessment ([4]; 100 g ai/ha, adjuvant None, 15 days after final application) | Percent control CAPDSP, incidence in leaf assessment ([4]; 100 g ai/ha, adjuvant Trycol, 15 days after final application) | Percent control CAPDSP, incidence in leaf assessment ([4]; 200 g ai/ha, adjuvant Agnique BP420, 15 days after final application)
B (51-75): Percent control (AUDPC) from fruit infection assessments ([1]; 50 g ai/ha) | Percent control (AUDPC) from fruit infection assessments ([2]; 50 g ai/ha) | Percent control (AUDPC) from leaf infection assessments ([3]; Trial 1, 100 g ai/ha)
